Assay results as given in US20190262453A1, “DESIGN AND COMPOSITION OF CELL-STABILIZED PHARMACEUTICAL FORMULATIONS” (THE REGENTS OF THE UNIVERSITY OF MICHIGAN, priority 2016, published 2019).

Experiment: Biochemical analysis of CFZ in tissues
Assay type: in vivo
Settings: clodronate-treated mice versus PBS
Description: Mice were fed CFZ or a control diet continuously for a four week period. Following two weeks of feeding, liposome treatment began for two weeks. After completing four weeks of feeding and two weeks of liposome treatment, the mice were sacrificed and tissues were collected.
The concentration of CFZ in organs was determined spectrophotometrically. After four weeks of CFZ- or vehicle-diet treatment, mice were euthanized via CO2 asphyxiation, and blood and organs were collected. Tissue (20-30 mg) was homogenized in 500 μL of RIPA buffer, and 350 μL of homogenate was removed drug was extracted with three passes of 1 mL of xylenes. The drug was then extracted from the xylene with three 1 mL passes of 9M sulfuric acid. The concentration of CFZ present in the tissue was then determined using a plate reader at wavelength 450 nm.

For `CC(C)N=c1cc2n(-c3ccc(Cl)cc3)c3ccccc3nc-2cc1Nc1ccc(Cl)cc1` [CFZ, 3-(p-chloroanilino)-10-(p-chlorophenyl)-2, 10-dihydro-2-isopropyliminophenazine], the “reduction in the total amount of drug found in the liver” value was 75±7%, the “reduction in the total amount of drug found in the spleen” value was 88±7% and the “difference in total amount of drug found in the kidney” value (p=0.77) was “no difference”.
